The supplement of paper PMC10949913

Legend:
Conditions in all cases: 48 h
NCI-H295R [1] = experiment: AC50 viability; higher = less potent
How it was run: (§1)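 Luminescence from CellTiter-Glo, read after 48 h, measured three adrenocortical carcinoma cell lines treated in 1,536-well plates with library compounds at 11 concentrations. Values were normalised per plate to vehicle and empty-well controls. The AC50 and area under the curve come from fitted concentration-response curves in inhibitory or non-responding classes only.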

CU-ACC1 = experiment: area under concentration-response curve (viability) (AUC (a.u.)); higher = less active
How it was run: as §1

NCI-H295R [2] = experiment: as above
How it was run: as §1

CU-ACC2 = experiment: as above
How it was run: as §1

Structure (SMILES)	AC50 viability (NCI-H295R [1])	area under concentration-response curve (CU-ACC1)	area under concentration-response curve (NCI-H295R [2])	area under concentration-response curve (CU-ACC2)
CCCCN(CCCC)CCC(O)c1cc2c(Cl)cc(Cl)cc2c2cc(C(F)(F)F)ccc12.Cl (stereo not drawn)	23.5 µM	538	548	615
CC(C)n1ncnc1-c1cn2c(n1)-c1ccc(O[C@@H](C)C(N)=O)cc1OCC2	1.05 µM	364	491	582
C[C@H]1CCC/C=C/C2C[C@H](O)C[C@H]2[C@H](O)/C=C/C(=O)O1 (stereo partly drawn)	0.263 µM	390	346	389
C[C@H]1Oc2cc(cnc2N)-c2c(nn(C)c2C#N)CN(C)C(=O)c2ccc(F)cc21	23.5 µM	529	505	557
CCC1=C[C@@H]2CN(C1)Cc1c([nH]c3ccccc13)[C@@](C(=O)OC)(c1cc3c(cc1OC)N(C)[C@H]1[C@@](O)(C(=O)OC)[C@H](OC(C)=O)[C@]4(CC)C=CCN5CC[C@]31[C@@H]54)C2	4.56 µM	507	473	573
C/C=C(/C)C(=O)O[C@H]1C(C)=C2[C@H]([C@@H]1OC(=O)CCCCCCC)[C@@](C)(OC(C)=O)C[C@H](OC(=O)CCC)[C@@]1(O)[C@H]2OC(=O)[C@@]1(C)O	10.5 µM	465	498	344
CN1CCN(CC1)C2=CC3=C([NH]C(=N3)C/4=C(\N)C5=C(F)C=CC=C5NC4=O)C=C2	20.9 µM	485	479	574
CC(C)NC(=O)[C@H]1CC[C@@H](n2c(NC(=O)c3ccc(F)cc3)nc3ccc(CN4CCC(C(C)(C)O)CC4)cc32)CC1	9.11 µM	465	612	626
COc1ccc2c(c1OC)C(=O)O[C@H]2[C@H]1c2c(cc3c(c2OC)OCO3)CCN1C	20.9 µM	493	519	608
CN1CCN([C@H]2CC[C@H](n3cc(-c4ccc(Oc5ccccc5)cc4)c4c(N)ncnc43)CC2)CC1	9.34 µM	488	481	517
CC[C@]1(O)C[C@H]2CN(CCC3=C([NH]C4=C3C=CC=C4)[C@@](C2)(C(=O)OC)C5=C(OC)C=C6N(C)[C@H]7[C@](O)([C@H](OC(C)=O)[C@]8(CC)\C=C/CN9CC[C@]7([C@H]89)C6=C5)C(=O)OC)C1	3.32 µM	504	444	560
NC(=O)Nc1cc(-c2ccc(CN3CCOCC3)cc2)sc1C(N)=O	6.61 µM	540	519	597
Cc1cccc(/C=N/Nc2cc(N3CCOCC3)nc(OCCc3ccccn3)n2)c1	18.6 µM	531	518	573
Oc1ccc([C@@H]2Oc3ccc(O)cc3[C@@H]3CCC[C@@H]32)cc1	13.2 µM	485	500	535
CCn1c(-c2nonc2N)nc2c(C#CC(C)(C)O)ncc(OC[C@H]3CCCNC3)c21	4.17 µM	369	442	524
Nc1nc2ccc(OC(F)(F)F)cc2s1	0.00372 µM	493	503	431
C/C=C(\C)C(=O)N[C@@H](c1ccccc1)[C@@H](O)C(=O)O[C@H]1C[C@@]2(O)[C@@H](OC(=O)c3ccccc3)[C@@H]3[C@]4(OC(C)=O)CO[C@@H]4C[C@H](O)[C@@]3(C)C(=O)[C@H](OC(C)=O)C(=C1C)C2(C)C	0.833 µM	447	418	515
Cc1nc(NC(=O)N2CCCC2C(N)=O)sc1-c1ccnc(C(C)(C)C(F)(F)F)c1 (stereo not drawn)	13.2 µM	531	548	626
C[C@@]1(C(=O)Nc2ccc(F)nc2)CCCN1c1nc(Nc2cc(C3CC3)[nH]n2)c2cccn2n1	0.148 µM	505	375	480
COC1=CC=C(C=C1)C2=NC3=CC(=CC=C3[NH]2)/C4=N/NC(=O)CC4C (stereo not drawn)	18.6 µM	532	541	632

Structure (SMILES)	AC50 viability (NCI-H295R [1])	area under concentration-response curve (CU-ACC1)	area under concentration-response curve (NCI-H295R [2])	area under concentration-response curve (CU-ACC2)
COC(=O)Nc1nc2cc(C(=O)c3ccccc3)ccc2[nH]1	0.417 µM	440	412	475
COc1c(C)c2c(c(O)c1C/C=C(\C)CCC(=O)O)C(=O)OC2	0.59 µM	467	482	561
COc1ccc(-c2oc3ncnc(N)c3c2-c2ccc(NC(=O)Nc3cc(C(F)(F)F)ccc3F)cc2)cc1	13.2 µM	469	471	518
C[N]1N=CC2=C1C=C(C(=C2)OC3=CC=C(NC(=O)\C4=C\C=C(\C)N(C4=O)C5=CC=C(F)C=C5)C=C3F)C6=C[NH]N=C6	7.42 µM	508	539	626
O=C1\C=C(OC2=C1SC=C2C3=CC=C4OCCOC4=C3)\N5CCOCC5	0.0742 µM	293	350	276
CC(C)(C)C1=CC(=C(NC(=O)C/2=C/NC3=C(C=CC=C3)C2=O)C=C1O)C(C)(C)C	18.6 µM	532	426	572
CN1c2ccccc2C(=O)N2CCc3c([nH]c4ccccc34)C21 (stereo not drawn)	2.63 µM	506	512	633
COc1cc(OC)c(/C=C/[S+](=O)([O-])Cc2ccc(OC)c(NCC(=O)[O-])c2)c(OC)c1	0.059 µM	464	386	479
COc1ccc(-n2c(C)c([N+](=O)[O-])c3ccc(O)cc32)cc1	14.8 µM	519	549	615
COC(=O)[C@@H]1[C@H]2C[C@H]3c4[nH]c5ccccc5c4CCN3C[C@@H]2CC[C@@H]1O	18.6 µM	443	442	458
COc1ccc(/C=C\c2cc(OC)c(OC)c(OC)c2)cc1O	0.00934 µM	505	333	474
CCCCc1ccc2[nH]c(NC(=O)OC)nc2c1	0.148 µM	480	438	511
CCN1CCN(Cc2ccc(NC(=O)c3ccc(C)c(NC(=O)c4cncc(-c5cccs5)c4)c3)cc2C(F)(F)F)CC1	7.42 µM	501	432	521
NC/1=N/C2=C([NH]C=N2)C(=S)N1	10.5 µM	511	533	609
CN1\C(=C(O)/C2=C(C=C(Cl)S2)[S+]1([O-])=O)C(=O)NC3=NC=CC=C3	0.118 µM	434	380	421
Oc1ccc(Nc2nc(-c3ccc(Cl)cc3)cs2)cc1	16.6 µM	403	474	496
CCN(CC)CCNC(=O)c1c(C)[nH]c(/C=C2\C(=O)Nc3ccc(F)cc32)c1C	9.34 µM	528	456	529
COc1ccc(-n2c(SCCCN3C(=O)c4cccc5cccc(c45)C3=O)nnc2-c2ccncc2)cc1	3.32 µM	422	406	406
CN(C)C/C=C/C(=O)Nc1cccc(C(=O)Nc2cccc(Nc3ncc(Cl)c(-c4c[nH]c5ccccc45)n3)c2)c1	1.66 µM	434	444	437
C[C@]12CC[C@@H]3c4ccc(O)cc4CC[C@H]3[C@@H]1CC[C@@H]2O	11.8 µM	437	471	478

Structure (SMILES)	AC50 viability (NCI-H295R [1])	area under concentration-response curve (CU-ACC1)	area under concentration-response curve (NCI-H295R [2])	area under concentration-response curve (CU-ACC2)
CC(C)c1onc(-c2c(Cl)cccc2Cl)c1COc1ccc(/C=C/c2cccc(C(=O)O)c2)c(Cl)c1	13.2 µM	442	480	508
O=C(Nc1ncc(-c2cc(C(F)F)nn2-c2c(Cl)cccc2Cl)s1)C1CC1	0.661 µM	501	467	465
CCN1CCN(CC1)CC(=O)NC2=CC=C(C3=C2C4=C(S3)C=CC=C4)C5=C6O\C(=C/C(=O)C6=CC=C5)N7CCOCC7	2.57 µM	555	494	610
Cc1[nH]c2ccccc2c1CCNCc1ccc(/C=C/C(=O)NO)cc1	4.17 µM	378	376	403
Nc1ncnc2c1ncn2[C@@H]1O[C@H](CO)C[C@H]1O	20.9 µM	550	528	612
CC(C)(O)[C@H]1CC[C@H](Nc2ccc3ncc(-c4cccc(C(F)(F)F)c4)n3n2)CC1	11.8 µM	434	460	490
Cc1ccc([S+](=O)([O-])Nc2cc(-c3ccc(C#N)s3)ccc2C)cc1	0.0417 µM	506	373	507
Cc1cc(-c2nc3cc(F)ccc3s2)ccc1NC(=O)[C@@H](N)CCCCN	23.5 µM	555	538	599
COc1ccc(N(C)c2nc(C)nc3ccccc23)cc1	0.00934 µM	491	401	410
Nc1nccc(-c2ccc3noc(-c4ccc(Cl)cc4)c3c2)n1	0.263 µM	344	354	345
Cc1ncc(NC(=O)c2cccc(C(F)(F)F)c2)cc1-c1cnc(OC2CCOCC2)c(N2CCOCC2)c1	20.9 µM	541	560	535
O=C1S/C(=C\c2ccc(OCc3cccc(B(O)O)c3)cc2)C(=O)N1Cc1ccc(F)cc1	13.2 µM	442	463	488
C=CCn1c(=O)c2cnc(Nc3ccc(N4CCN(C)CC4)cc3)nc2n1-c1cccc(C(C)(C)O)n1	1.86 µM	452	393	531
CO[C@H]1C[C@H]2OC[C@@]2(OC(C)=O)[C@H]3[C@H](OC(=O)C4=CC=CC=C4)[C@]5(O)C[C@H](OC(=O)[C@H](O)[C@@H](NC(=O)OC(C)(C)C)C6=CC=CC=C6)/C(=C(/[C@@H](OC)C(=O)[C@]13C)C5(C)C)C	0.934 µM	520	382	565
C[C@@H]1C[C@H]2[C@@H]3\C=C(C)/C4=C/C5=C(C[C@]4(C)[C@H]3[C@@H](O)C[C@]2(C)[C@@]1(O)C(=O)COC(C)=O)C=N[N]5C6=CC=CC=C6	20.9 µM	513	529	608
CC[C@]1(O)C[C@H]2CN(CCC3=C([NH]C4=C3C=CC=C4)[C@@](C2)(C(=O)OC)C5=CC6=C(C=C5OC)N(C=O)[C@H]7[C@](O)([C@H](OC(C)=O)[C@]8(CC)\C=C/CN9CC[C@]67[C@H]89)C(=O)OC)C1	3.32 µM	504	471	590
COc1ccc(-c2ccc3c(N4CCOCC4)nc(N4C[C@@H](C)O[C@@H](C)C4)nc3n2)cc1CO	0.934 µM	464	468	469
COc1ccccc1C(=O)Nc1cc2c(cc1N1CCCCC1)n(C)c(=O)n2C	16.6 µM	426	422	434
CON(C)C(=O)N1/N=C(S[C@@]1(CCCN)C2=CC=CC=C2)/C3=CC(=CC=C3F)F	2.09 µM	–	348	517
NC(=O)[C@H]1CCS[C@@H]2C[C@]3(CCCN3C(=O)Cc3ccc(NC(=O)COc4ccc(Cl)cc4Cl)cc3)C(=O)N12	14.8 µM	–	483	528
